{"source": "patent US20210347794A1", "about": "“Phosphate Derivatives of Indole Compounds and Their Use” (ARIAGEN, INC., priority 2018, published 2021)", "key": {"[1]": {"assay": "In vivo pharmacokinetic study in dogs, oral dose of ARI-158", "design": "species or system male beagle dogs", "conditions": "for Plasma Concentration / AUC(0-inf) / AUC(0-t) / Cmax / Tmax / half-life / concentration at 0.083 h / concentration at 0.25 h / concentration at 0.5 h / concentration at 1 h / concentration at 2 h / concentration at 4 h / concentration at 6 h / concentration at 8 h: dogs, 10 mg/kg oral dose of ARI-158; for AUC(0-inf) / AUC(0-t) / Cmax / Tmax / half-life / concentration at 0.083 h / concentration at 0.25 h / concentration at 0.5 h / concentration at 1 h / concentration at 2 h / concentration at 4 h / concentration at 6 h / concentration at 8 h: male, beagle, dog, plasma, po, 10 mg/kg", "experimental": "This example describes pharmacokinetic (PK) studies of ARI-158 and ARI-160 in dogs and rats, respectively. In the present studies, the test compounds were given to groups of male beagle dogs and rats (N=3 in each group) intravenously (IV) at 2 mg/kg or orally (PO) at 10 mg/kg. IV doses were formulated in DMSO, while PO doses were formulated in a 50/50 mixture of PEG400 and Tween 80. Blood samples were collected at pre-dose and over a period of 24 hours post-dose. Plasma concentrations of the indolo-phosphoramidate compounds were determined by HPLC."}, "EMT-6 cancer cells": {"system": "EMT-6 cancer cells", "assay": "Anti-tumor activity in EMT-6 syngeneic mouse tumor model", "type": "in vivo", "conditions": "80 mpk", "experimental": "This example describes in vivo studies that evaluated the anti-cancer efficacy of ARI-158 and ARI-160 in syngeneic mouse tumor models. Mice implanted subcutaneously with EMT-6 cancer cells were treated with ARI-158 and ARI-160, or vehicle controls, as described below.\nA monolayer culture of tumor cells was maintained in vitro in DMEM or RPMI1640 medium supplemented with 10% fetal bovine serum at 37° C. in an atmosphere of 5% CO2. Cells in exponential growth phase were harvested and quantitated by cell counter before tumor inoculation.\nEMT-6 syngeneic mouse tumor models were generated by inoculating female BALB/C 6 mice with EMT-6 cancer cells at their right lower flank.\nEach mouse was inoculated subcutaneously with tumor cells in 0.1 mL of PBS. Treatments were started when the mean tumor size reached approximately 80-120 mm^3 (around 100 mm^3). The administration of the test compounds and the animal number in each study group are shown in the study design. The date of tumor cell inoculation was denoted as day 0.\nARI-158 and ARI-160 were dissolved in DMSO at the final concentration of 26.7 mg/ml and stored at room temperature.\nRandomization of animals was started when the mean tumor size reached approximately 90 mm^3 to form the mouse study groups. The randomization was performed based on “Matched distribution” method using the multi-task method (StudyDirector™ software, version 3.1.399.19)/randomized block design. […]\nTumor volumes were measured twice per week in two dimensions using a caliper, and the volume was expressed in mm^3 using the formula: […]\nwhere V is tumor volume, L is tumor length (the longest tumor dimension) and W is tumor width (the longest tumor dimension perpendicular to L). Dosing as well as tumor and body weight measurements was conducted in a Laminar Flow Cabinet. The body weights and tumor volumes were measured by using StudyDirector™ software (version 3.1.399.19).\nTumor growth inhibition percentage (TGI %) is an indicator for antitumor activity of a drug compound, and expressed as: […]\nwhere T and C are the mean tumor volume (or weight) of the treated and control groups, respectively, on a given day. Statistical analysis of the difference in mean tumor volume (MTV) among the groups was conducted using the data collected on the day when the MTV of the vehicle group reached the humane endpoints, so that TGI could be derived for all or most mice enrolled in the study."}}, "data": [{"compound": "CCC(=O)c1csc(C(=O)c2cn(P(=O)([O-])[O-])c3cc(F)ccc23)n1.[Na+].[Na+]", "note": "[ARI-158]", "values": [{"measurement": "Plasma Concentration", "setting": "[1]; time 0 h, Dog 10", "result": "BLQ"}, {"measurement": "Plasma Concentration", "setting": "[1]; time 0 h, Dog 11", "result": "BLQ"}, {"measurement": "Plasma Concentration", "setting": "[1]; time 0 h, Dog 12", "result": "BLQ"}, {"measurement": "Plasma Concentration", "setting": "[1]; time 8 h, Dog 11", "result": "BLQ"}, {"measurement": "Plasma Concentration", "setting": "[1]; time 24 h, Dog 10", "result": "BLQ"}, {"measurement": "Plasma Concentration", "setting": "[1]; time 24 h, Dog 11", "result": "BLQ"}, {"measurement": "Plasma Concentration", "setting": "[1]; time 24 h, Dog 12", "result": "BLQ"}, {"measurement": "AUC(0-inf)", "setting": "[1]; Dog 10", "result": 1020, "unit": "ng·h/mL"}, {"measurement": "AUC(0-t)", "setting": "[1]; Dog 10", "result": 1020, "unit": "ng·h/mL"}, {"measurement": "Cmax", "setting": "[1]; Dog 10", "result": 786, "unit": "ng/mL"}, {"measurement": "Tmax", "setting": "[1]; Dog 10", "result": 30, "unit": "min"}, {"measurement": "half-life", "setting": "[1]; Dog 10", "result": 82.2, "unit": "min"}, {"measurement": "AUC(0-inf)", "setting": "[1]; Dog 11", "result": 677, "unit": "ng·h/mL"}, {"measurement": "AUC(0-t)", "setting": "[1]; Dog 11", "result": 675, "unit": "ng·h/mL"}, {"measurement": "Cmax", "setting": "[1]; Dog 11", "result": 561, "unit": "ng/mL"}, {"measurement": "Tmax", "setting": "[1]; Dog 11", "result": 30, "unit": "min"}, {"measurement": "half-life", "setting": "[1]; Dog 11", "result": 39.2, "unit": "min"}, {"measurement": "AUC(0-inf)", "setting": "[1]; Dog 12", "result": 676, "unit": "ng·h/mL"}, {"measurement": "AUC(0-t)", "setting": "[1]; Dog 12", "result": 669, "unit": "ng·h/mL"}, {"measurement": "Cmax", "setting": "[1]; Dog 12", "result": 275, "unit": "ng/mL"}, {"measurement": "Tmax", "setting": "[1]; Dog 12", "result": 60, "unit": "min"}, {"measurement": "half-life", "setting": "[1]; Dog 12", "result": 61.2, "unit": "min"}, {"measurement": "AUC(0-inf)", "setting": "[1]; Mean", "result": 791, "unit": "ng·h/mL"}, {"measurement": "AUC(0-t)", "setting": "[1]; Mean", "result": 787, "unit": "ng·h/mL"}, {"measurement": "Cmax", "setting": "[1]; Mean", "result": 541, "unit": "ng/mL"}, {"measurement": "Tmax", "setting": "[1]; Mean", "result": 40, "unit": "min"}, {"measurement": "half-life", "setting": "[1]; Mean", "result": 60.6, "unit": "min"}, {"measurement": "concentration at 0.083 h", "setting": "[1]; Dog 10", "result": 153, "unit": "ng/mL"}, {"measurement": "concentration at 0.083 h", "setting": "[1]; Dog 11", "result": 149, "unit": "ng/mL"}, {"measurement": "concentration at 0.083 h", "setting": "[1]; Dog 12", "result": 14.3, "unit": "ng/mL"}, {"measurement": "concentration at 0.083 h", "setting": "[1]; Mean", "result": 105, "unit": "ng/mL"}, {"measurement": "concentration at 0.25 h", "setting": "[1]; Dog 10", "result": 438, "unit": "ng/mL"}, {"measurement": "concentration at 0.25 h", "setting": "[1]; Dog 11", "result": 414, "unit": "ng/mL"}, {"measurement": "concentration at 0.25 h", "setting": "[1]; Dog 12", "result": 87.3, "unit": "ng/mL"}, {"measurement": "concentration at 0.25 h", "setting": "[1]; Mean", "result": 313, "unit": "ng/mL"}, {"measurement": "concentration at 0.5 h", "setting": "[1]; Dog 10", "result": 786, "unit": "ng/mL"}, {"measurement": "concentration at 0.5 h", "setting": "[1]; Dog 11", "result": 561, "unit": "ng/mL"}, {"measurement": "concentration at 0.5 h", "setting": "[1]; Dog 12", "result": 178, "unit": "ng/mL"}, {"measurement": "concentration at 0.5 h", "setting": "[1]; Mean", "result": 508, "unit": "ng/mL"}, {"measurement": "concentration at 1 h", "setting": "[1]; Dog 10", "result": 677, "unit": "ng/mL"}, {"measurement": "concentration at 1 h", "setting": "[1]; Dog 11", "result": 311, "unit": "ng/mL"}, {"measurement": "concentration at 1 h", "setting": "[1]; Dog 12", "result": 275, "unit": "ng/mL"}, {"measurement": "concentration at 1 h", "setting": "[1]; Mean", "result": 421, "unit": "ng/mL"}, {"measurement": "concentration at 2 h", "setting": "[1]; Dog 10", "result": 128, "unit": "ng/mL"}, {"measurement": "concentration at 2 h", "setting": "[1]; Dog 11", "result": 102, "unit": "ng/mL"}, {"measurement": "concentration at 2 h", "setting": "[1]; Dog 12", "result": 158, "unit": "ng/mL"}, {"measurement": "concentration at 2 h", "setting": "[1]; Mean", "result": 129, "unit": "ng/mL"}, {"measurement": "concentration at 4 h", "setting": "[1]; Dog 10", "result": 11.2, "unit": "ng/mL"}, {"measurement": "concentration at 4 h", "setting": "[1]; Dog 11", "result": 14.4, "unit": "ng/mL"}, {"measurement": "concentration at 4 h", "setting": "[1]; Dog 12", "result": 69.8, "unit": "ng/mL"}, {"measurement": "concentration at 4 h", "setting": "[1]; Mean", "result": 31.8, "unit": "ng/mL"}, {"measurement": "concentration at 6 h", "setting": "[1]; Dog 10", "result": 3.28, "unit": "ng/mL"}, {"measurement": "concentration at 6 h", "setting": "[1]; Dog 11", "result": 1.47, "unit": "ng/mL"}, {"measurement": "concentration at 6 h", "setting": "[1]; Dog 12", "result": 14.1, "unit": "ng/mL"}, {"measurement": "concentration at 6 h", "setting": "[1]; Mean", "result": 6.28, "unit": "ng/mL"}, {"measurement": "concentration at 8 h", "setting": "[1]; time 8 h, Dog 10", "result": 1.47, "unit": "ng/mL"}, {"measurement": "concentration at 8 h", "setting": "[1]; time 8 h, Dog 12", "result": 4.62, "unit": "ng/mL"}, {"measurement": "concentration at 8 h", "setting": "[1]; time 8 h, Mean", "result": 3.05, "unit": "ng/mL"}, {"measurement": "absorption", "setting": "[1]; oral administration in dogs, compared with ARI-143", "result": "absorbed much more efficiently than ARI-143"}, {"measurement": "anti-tumor efficacy (TGI) comparison", "setting": "EMT-6 cancer cells", "result": "better efficacy than ARI-160"}, {"measurement": "TGI", "setting": "EMT-6 cancer cells; study day 6", "result": "−0.01", "unit": "%"}, {"measurement": "TGI", "setting": "EMT-6 cancer cells; study day 10", "result": 2.92, "unit": "%"}, {"measurement": "TGI", "setting": "EMT-6 cancer cells; study day 13", "result": "−1.75", "unit": "%"}, {"measurement": "TGI", "setting": "EMT-6 cancer cells; study day 17", "result": 17.21, "unit": "%"}, {"measurement": "TGI", "setting": "EMT-6 cancer cells; study day 20", "result": 38.27, "unit": "%"}, {"measurement": "TGI", "setting": "EMT-6 cancer cells; study day 24", "result": 44.41, "unit": "%"}, {"measurement": "TGI", "setting": "EMT-6 cancer cells; study day 27", "result": 42.16, "unit": "%"}, {"measurement": "TGI", "setting": "EMT-6 cancer cells; study day 31", "result": 39.97, "unit": "%"}]}]}
